According to ChEMBL document CHEMBL4482316, “Compounds for the inhibition of angiogenesis and use thereof” (2013):
Calls of active or inactive are those of the source. The rule behind the calls is not given here.

Tests used:
Mus musculus = experiment: Inhibition of corneal neovascularization in C57 mouse dosed via implanted with pumps at 1 uL/hr for 7 days by fluorescence microscopy; type: functional, organism-based
Rattus norvegicus [1] = experiment: Inhibition of oxygen-induced retinal angiogenesis in Sprague-Dawley rat dosed in right eye at stage at P9 and P11 during ischemic phase that follows oxygen exposure by epifluorescent microscopy; type: functional, organism-based
K562 = experiment: Inhibition of cell adhesion in human K562 cells at 0.5 uM pre-incubated for 30 mins before cell adhesion to fibronectin for 30 mins by crystal violet staining based assay; type: functional
Rattus norvegicus [2] = experiment: Inhibition of retinal angiogenesis in newborn Sprague-Dawley rat dosed intravitreally at P1 stage and P3 by epifluorescent microscopy; type: functional, organism-based

Structure (SMILES)	inhibition (Mus musculus)	inhibition (Rattus norvegicus [1])	inhibition (K562)	inhibition (Rattus norvegicus [2])
COc1cccc(OC)c1C(=O)N[C@@H](CNC(=O)CO[C@@H]1C[C@@H](CNc2ccccn2)N(C(=O)OCc2ccccc2)C1)C(=O)O	Active	Active	–	–
O=C(CO[C@@H]1C[C@@H](CNc2ccccn2)N(C(=O)OCc2ccccc2)C1)NC[C@H](NC(=O)C1CCCCC1)C(=O)O	Active	Active	–	–
CC(C)(C)C(=O)N[C@@H](CNC(=O)CO[C@@H]1C[C@@H](CNc2ccccn2)N(C(=O)OCc2ccccc2)C1)C(=O)O	Active	Active	–	–
C#CCOC(=O)N1C[C@H](OCC(=O)NC[C@H](NS(=O)(=O)c2c(C)cc(C)cc2C)C(=O)O)C[C@H]1CNc1ccccn1	Active	Active	–	–
O=C(CO[C@@H]1C[C@@H](CNc2ccccn2)N(C(=O)OCc2ccccc2)C1)NC[C@H](NC(=O)c1ccccc1Cl)C(=O)O	Active	Active	–	–
CCC(C)(C)C(=O)N[C@@H](CNC(=O)CO[C@@H]1C[C@@H](CNc2ccccn2)N(C(=O)OCc2ccccc2)C1)C(=O)O	Active	Active	–	–
Cc1cc(C)c(S(=O)(=O)N[C@@H](CNC(=O)CO[C@@H]2C[C@@H](CNc3ccccn3)N(C(=O)OCC(C)C)C2)C(=O)O)c(C)c1	Active	Active	–	–
Cc1cc(C)c(C(=O)N[C@@H](CNC(=O)CO[C@@H]2C[C@@H](CNc3ccccn3)N(C(=O)OCc3ccccc3)C2)C(=O)O)c(C)c1	Active	Active	Active	–
Cc1cc(C)c(S(=O)(=O)N[C@@H](CNC(=O)CO[C@@H]2C[C@@H](CNc3ccccn3)N(C(=O)CC(C)(C)C)C2)C(=O)O)c(C)c1	Active	Active	–	–
Cc1cc(C)c(S(=O)(=O)N[C@@H](CNC(=O)CO[C@@H]2C[C@@H](CNc3ccccn3)N(C(=O)OCc3ccccc3)C2)C(=O)O)c(C)c1	Active	Active	–	Active
Cc1cc(C)c(S(=O)(=O)N[C@@H](CNC(=O)CO[C@@H]2C[C@@H](CNc3ccccn3)N(C(=O)NC3CCCC3)C2)C(=O)O)c(C)c1	Active	Active	–	–
O=C(CO[C@@H]1C[C@@H](CNc2ccccn2)N(C(=O)OCc2ccccc2)C1)NC[C@H](NC(=O)c1ccccc1[N+](=O)[O-])C(=O)O	Active	Active	–	–
Cc1cccc(C)c1C(=O)N[C@@H](CNC(=O)CO[C@@H]1C[C@@H](CNc2ccccn2)N(C(=O)OCc2ccccc2)C1)C(=O)O	Active	Active	–	–
COc1ccnc(NC[C@@H]2C[C@@H](OCC(=O)NC[C@H](NC(=O)C3(C)CCCCC3)C(=O)O)CN2C(=O)CC(C)(C)C)c1	Active	Active	–	–
